From patent EP2114888B1, “TRICYCLIC COMPOUNDS AND THEIR USE AS GLUCOCORTICOID RECEPTOR MODULATORS” (priority 2007, dated 2008)

Columns and labels:
[1] = tested on: Mouse Collagen-induced arthritis (mCIA); assay: Therapeutic mouse collagen-induced arthritis (mCIA) model; assay type: in vivo, Male DBA/J mice
Description: Mouse Collagen-induced arthritis is a commonly used chronic, preclinical model of rheumatoid arthritis in which joint swelling and bone destruction occur following immunization with type II collagen. Reduction of disease incidence and severity has been shown previously to be predictive of disease-modification and signs and symptoms mitigation, respectively, in a clinical setting. In the therapeutic mCIA model, induction of disease incidence and severity was synchronized via LPS stimulation. Male DBA/J mice were immunized with 100 ug of bovine type II collagen (bCII) on day 0. […] Dosing of compounds was initiated in the therapeutic mode on day 34 and continued through day 49. Different treatments were compared by measuring the decrease in incidence (i.e., resolution of disease) and the decrease in severity of paw swelling over time.

TNFα = assay: LPS-induced serum TNFα suppression, 28-day repeat dose mouse model; assay type: in vivo, Swiss Webster female mice
Protocol: The compounds were weighed and suspended in a vehicle of 0.5% methylcellulose/0.025% tween 20 (Sigma-Aldrich, St. Louis, MO). Compound suspensions were homogenized using a Polytron PT-3100 tissue homogenizer to create a very fine suspension and were then sonicated for 10 minutes using a water bath sonicator. Aliquots of each suspension were made for daily dosing at 0.2 ml/dose. Swiss Webster female mice, 10-12 weeks old, 28-29 grams, (Taconic, Germantown, NY) were used in accordance with the guidelines of the Institutional Animal Care and Use Committee and in accordance with NIH guidelines on laboratory animal welfare. Mice were acclimated in the Pfizer animal facility for three to seven days prior to being utilized in a study. […] Each treatment group contained 5-10 mice. To establish a dosing regimen for the studies, a pilot pharmacodynamic time course experiment was conducted to quantify TNFα repression after a single ED80 dose.
Body weights were measured on the first and last day of each experiment. Blood samples were obtained after three weeks of dosing for a steady-state pharmacokinetic (PK) analysis. To assess compound effects on LPS-induced TNFα, all mice received an intraperitoneal injection of LPS (Salmonella typhosa, L-7895; Sigma-Aldrich, St. Louis,) 2.5 hr after the last dose on day 28. Mice were sacrificed 90 minutes after LPS administration. Serum samples were quantified for osteocalcin and TNFα using the multiplex assays (Linco Research, Inc, St. Charles, MO; Luminex 100, Austin, TX). Samples were diluted 1:20 and the assay was run according to manufacturer's instructions. The osteocalcin standard was purchased separately (Biomedical Technologies Inc., Stoughton, MA). Mice were fasted for 4 hours before serum was collected for TNFα, and osteocalcin levels. For each experiment, outliers were detected by calculating the number of standard deviations from the mean of the group. If the value being examined was more than 2.5 standard deviations from the mean, it was excluded from the rest of the calculations.
The individual mouse percent inhibition values were fit to a four-parameter logistic model using the dose mean for each group.
ED50 and ED80 values were obtained for the various endpoints using a four-parameter logistic fit. For compounds which were tested multiple times, ED50 and ED80 values were obtained using four-parameter logistic fits of the combined data from multiple experiments.

[2] = tested on: house dust mite-induced BAL inflammatory cell influx; assay: House dust mite model of asthma; assay type: in vivo, Mice; details: p.o., b.i.d., BAL fluid
[3] = Oral absorption profile in rats

Cc1ncccc1NC(=O)c1ccc2c(c1)CC[C@@H]1C[C@@](O)(C(F)(F)F)CC[C@@]21Cc1ccccc1 [Example 1, (4βS,7R,8αR)-4β-benzyl-7-hydroxy-N-(2-methylpyridin-3-yl)-7-(trifluoromethyl)-4β,5,6,7,8,8α,9,10-octahydrophenanthrene-2-carboxamide]
ED80 ([1]; Mus musculus, dosing day 34 through day 49, read-out: Therapeutic mCIA (ED80 dose)): 1.5 mg/kg | Therapeutic mCIA (ED50 dose) ([1]; dosing day 34 through day 49, listed as Example 1 free base): 0.4 mg/kg | Disease severity (therapeutic mCIA) EAUC50 (AUC 0-4 hr) ([1]; mice): 0.09 µg·h/mL | Disease severity (therapeutic mCIA) EAUC80 (AUC 0-4 hr) ([1]; mice): 0.19 µg·h/mL | ED50 (TNFα; Mus musculus, 672 h, oral gavage, 28 days, LPS-induced serum TNFα): 0.46 mg/kg | ED80 (TNFα; Mus musculus, 672 h, oral gavage, 28 days, LPS-induced serum TNFα, read-out: TNFα Suppression (ED80 dose)): 1.82 mg/kg | Serum TNFα EAUC50 (AUC 0-4 hr) (TNFα; mice): 0.22 µg·h/mL | Serum TNFα EAUC80 (AUC 0-4 hr) (TNFα; mice): 0.33 µg·h/mL | Eosinophils (% inhibition) ([2]; 0.1 mg/kg): 42% | Lymphocytes (% inhibition) ([2]; 0.1 mg/kg): 34% | Neutrophils (% inhibition) ([2]; 0.1 mg/kg): 29% | T-cells (% inhibition) ([2]; 0.1 mg/kg): 39% | Total cells (% inhibition) ([2]; 0.1 mg/kg): 22% | Eosinophils (% inhibition) ([2]; 1 mg/kg): 97% | Lymphocytes (% inhibition) ([2]; 1 mg/kg): 94% | Neutrophils (% inhibition) ([2]; 1 mg/kg): 97% | T-cells (% inhibition) ([2]; 1 mg/kg): 88% | Total cells (% inhibition) ([2]; 1 mg/kg): 72% | Eosinophils (% inhibition) ([2]; 10 mg/kg): 99% | Lymphocytes (% inhibition) ([2]; 10 mg/kg): 97% | Neutrophils (% inhibition) ([2]; 10 mg/kg): 100% | T-cells (% inhibition) ([2]; 10 mg/kg): 96% | Total cells (% inhibition) ([2]; 10 mg/kg): 83% | bioavailability F [3]: 17% | Cmax ([3]; oral): 130 ng/mL
